What all share (assay): DTP human tumour cell line panel, 48 h
Assay [1] has as its system MOLT-4 leukemia.
Assay [2] relates to SK-MEL-2 melanoma.
Assay [3] has as its system SK-MEL-5 melanoma.
Assay [4] deals with OVCAR-4 ovarian.
Assay [5] concerns SF-295 CNS.
Assay [6] relates to U251 CNS.
Assay [7] relates to SNB-75 CNS.
The test system of assay [8] is OVCAR-5 ovarian.
The subject of assay [9] is RXF 393 renal.
In assay [10] the test system is HOP-92 NSCLC.

Experimental findings from PubChem BioAssay (NCI) are described below.

Each structure is given as a SMILES string. Where “and” joins values, the source holds several entries; their conditions need not be identical. Equal values may be shown once.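 Following 48 hours of exposure in 96-well plates, responses at five concentrations were used to interpolate endpoints linearly. TGI is the concentration that stops growth completely.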

As for `O=C(Nc1nnc(-c2ccccc2)o1)C(SC(=S)N1CCCCC1)c1ccccc1` (stereo not given), the TGI in assay [1] was greater than 100 µM; in [2], 51.1 µM; in assay [3], 28.2 µM; in assay [4], greater than 100 µM; in assay [5] it was greater than 100 µM; in [6], 87.2 µM. Moreover, the TGI was greater than 100 µM in assay [7], 82.9 µM in [8] and greater than 100 µM in [9].
In the case of `COc1ccc(/C=C2\CCC(C)C3=C(c4ccc(OC)c(OC)c4)C(C#N)=C(N)OC32)cc1OC` (stereo not given), the TGI is 5.63 µM in assay [2]; 4.66 µM in assay [3]; 75.9 µM in assay [5]; greater than 100 µM in assay [6]; 8.63 µM in assay [7]; 23.6 µM in [8]. In addition, in assay [9], the TGI is 3.99 µM.
With `COc1ccc(/C=C2\CCCC(CN(C)C)C2=O)cc1` (stereo not given), the TGI in assay [1] was 2.56 µM; in assay [2], 11 µM; in assay [3] it was 28.8 µM; in [4], 4.43 µM; in assay [10], 8.99 µM; in assay [5] it was 36.8 µM. Further, the TGI in assay [6] stood at 3.88 µM; in assay [7] it was 21.6 µM; in assay [8] it was 23.2 µM.
Turning to `CCC1=NC(N/N=C/c2ccco2)=N/C1=C\c1ccccc1O`, the TGI was greater than 100 µM in [1]; 89.4 µM in assay [2]; greater than 100 µM in [3]; 27.8 µM in assay [4]; greater than 100 µM in assay [10]; greater than 100 µM in assay [5]. The TGI in assay [6], in [8] and in assay [9] was greater than 100 µM throughout.
As to `N#CN=C(N)c1sc2nc3c(c(-c4ccc(Br)cc4)c2c1N)CCCC3`, the TGI was greater than 100 µM in assay [1]; 32.8 µM in assay [2]; 38.3 µM in assay [3]; 26.9 µM in assay [4]; 77.5 µM in assay [10]; 58.6 µM in assay [5]. The TGI was greater than 100 µM in [6], greater than 100 µM in assay [8] and 60 µM in assay [9].
As for `C=C(C)C(=O)O[C@H]1C/C(CO)=C/CCC(=C)C(OC(C)=O)[C@H]2OC(=O)C(=C)[C@H]12` (stereo not given in full), the TGI in [1] was 17.2 µM; in [2], 35.6 µM; in assay [3] it was 28.3 µM; in [5], 91.4 µM; in assay [6] it was 35.8 µM; in [7], 9.12 µM. This compound displayed a TGI in [8] of 88.7 µM.
With `Oc1ccc(-c2csc(NNC3=NC/C(=C/c4ccc5c(c4)OCO5)S3)n2)cc1O`, the TGI in assay [1], in assay [2], in assay [3], in assay [4], in [10] and in assay [5] was greater than 100 µM throughout. The values for the TGI in assay [6], in [7] and in assay [8] were greater than 100 µM, 38.9 µM and greater than 100 µM, respectively.
In the case of `CC[C@]1(O)C[C@H]2CN(CCc3c([nH]c4ccccc34)[C@@](C(=O)OC)(c3cc4c(cc3OC)N(C=O)[C@H]3[C@@](O)(C(=O)OC)[C@H](OC(C)=O)[C@]5(CC)C=CCN6CC[C@]43[C@@H]65)C2)C1`, the TGI was 7.59 µM and 48 µM and 23.3 µM in assay [1]; 132 µM and 135 µM in assay [4]; 1.19 µM and 3.07 µM and 6.57 µM in assay [10]; 0.141 µM and 0.536 µM in [5]; 1.66 µM and 2.53 µM and 16.6 µM in [6]; 17.5 µM and 74.1 µM in assay [9].
Consider `Cc1c(NC(=S)NN)c(=O)n(-c2ccccc2)n1C`, for which the TGI in assay [1], in assay [2], in [3], in assay [4], in assay [5] and in [6] was greater than 100 µM throughout. For the same compound, the TGI in assay [7], in [8] and in [9] was greater than 100 µM throughout.
As for `CC(=O)[C@@H]1[C@@H](OC(=O)CCC(C)COC2OC(CO)C(O)C(O)C2O)C[C@H]2[C@@H]3CC=C4C[C@@H](OC5OC(CO)C(OC6OC(C)C(O)C(O)C6O)C(O)C5OC5OC(C)C(O)C(O)C5O)CC[C@]4(C)[C@H]3CC[C@]12C` (stereo not given in full), the TGI in [1], in [2], in assay [3], in assay [4], in assay [5] and in assay [6] was greater than 100 µM in each case. The TGI in assay [7], in assay [8] and in assay [9] was greater than 100 µM each time.
Regarding `O=c1c2cc(-c3ccccc3)sc2nc2n1N=C(c1ccccc1)CS2`, the TGI in assay [1] was greater than 100 µM; in assay [3] it was 79.3 µM; in assay [4], 61.4 µM; in assay [10] it was 34.6 µM; in assay [5], 44.2 µM; in [6], 48.4 µM. Besides, the TGI in assay [7] was 89.1 µM; in [8], greater than 100 µM.
On to `COc1ccc2nc3cc(Cl)ccc3c(NCCCN(Cc3cc(OC)c(OC)c(OC)c3)Cc3cc(OC)c(OC)c(OC)c3)c2c1`, for which the TGI in [1] was 7.11 µM; in assay [2], 72.1 µM; in assay [3] it was 2.61 µM; in assay [10], 23.7 µM; in assay [5], 12.1 µM; in assay [6], 17.3 µM. The results for the TGI in assay [8] and in assay [9] were 27.9 µM and 15.2 µM, respectively.
Regarding `COc1cc2c[n+](C)c3c4cc(OC)c(OC)cc4c(OC)cc3c2cc1OC`, the TGI in [2] was greater than 86 µM; in assay [3] it was 14.9 µM; in assay [4] it was greater than 69.5 µM; in assay [5], greater than 100 µM; in assay [6] it was greater than 51.8 µM; in assay [7], greater than 95.1 µM. In addition, the TGI in assay [8] and in assay [9] was greater than 100 µM each time.
`COc1ccc(C2=CC(c3ccccc3)n3nnnc3N2)cc1` (stereo not given): the TGI in assay [1], in assay [2], in assay [3], in assay [5], in assay [6] and in [8] was greater than 100 µM throughout. This compound also had a TGI in assay [9] greater than 100 µM.
For the compound `CC(C)(C)c1cc(CC2C(=O)c3ccccc3C2=O)cc(C(C)(C)C)c1O`, the TGI was 9.56 µM in assay [1]; 10.8 µM in assay [2]; 11.1 µM in assay [3]; greater than 100 µM in assay [4]; 1.07 µM in [10]; 12.4 µM in assay [5]. In addition, the TGI amounted to 13.2 µM in [6] and 57.6 µM in assay [8].
Turning to `COC(=O)c1c2c(cc3c1CC1(Cc4cc5c(c(C=O)c4C1)CCCC5)C3)CCCC2` (stereo not given), the TGI in assay [1] is greater than 100 µM; in assay [2], 85.1 µM; in [3], greater than 100 µM; in assay [4] it was greater than 100 µM; in assay [10], greater than 100 µM; in assay [5], greater than 100 µM. The TGI in assay [6], in [8] and in assay [9] was greater than 100 µM in each case.
Consider `OCC1OC(n2nc(-c3ccccc3)nc2-c2cnccn2)C(O)C(O)C1O` (stereo not given), for which the TGI in [1], in [3], in [4], in assay [10], in [5] and in assay [6] was greater than 100 µM in each case. Besides, the TGI in assay [7] and in [8] was greater than 100 µM each time.
For the compound `NC(=O)c1nnc2ccc(F)cc2c1N`, the TGI in [1], in assay [2], in assay [3], in [4], in [5] and in [6] was greater than 100 µM each time. Further, the TGI in assay [7] and in assay [8] was greater than 100 µM in each case.
As to `CCCCCC(C)(C)CCC(=O)OC1OC(COC2OC(COC3OC(CO)C(O)C(O)C3O)C(O)C(O)C2O)C(O)C(O)C1O` (stereo not given), the TGI in [1], in assay [2], in assay [3], in assay [10], in assay [5] and in [6] was greater than 100 µM each time. In addition, the TGI in [8] and in [9] was greater than 100 µM throughout.
For the compound `CC(=O)OC12/C(=N/O)CCCCCC1c1ccccc12` (stereo not given), the TGI in assay [1], in [2], in assay [3], in assay [4], in [5] and in assay [6] was greater than 100 µM throughout. The TGI in assay [7] and in [9] was greater than 100 µM throughout.
For `Cc1cc(N(CCC#N)CCC#N)ccc1/C(N=Nc1ccc(Cl)cc1)=N\NC(=O)c1cc(Cl)ccc1O`, the TGI was greater than 100 µM in assay [1]; greater than 100 µM in [2]; greater than 100 µM in assay [3]; greater than 100 µM in [4]; 91.4 µM in assay [5]; greater than 100 µM in assay [6]. For the same compound, the values for the TGI in assay [7], in assay [8] and in [9] were 84.4 µM, greater than 100 µM and 74.5 µM, respectively.
As to `C=CCn1c(=O)c2ccccc2[n+]2c(C)c(C(=O)OCC)sc12`, the TGI in assay [1], in [2], in assay [3], in [4], in assay [5] and in assay [6] was greater than 100 µM each time. In addition, the TGI in assay [8] and in [9] was greater than 100 µM in each case.

Usually TGI stands for the concentration at which net growth stops. Read a high TGI as less potent growth arrest.
